Measured values as given in ChEMBL document CHEMBL3638854, “Chemical compounds” (2015).

Biological target: T1, Ileal sodium/bile acid cotransporter (Homo sapiens, UniProt Q12908)
T1 sequence (Q12908 whole entry): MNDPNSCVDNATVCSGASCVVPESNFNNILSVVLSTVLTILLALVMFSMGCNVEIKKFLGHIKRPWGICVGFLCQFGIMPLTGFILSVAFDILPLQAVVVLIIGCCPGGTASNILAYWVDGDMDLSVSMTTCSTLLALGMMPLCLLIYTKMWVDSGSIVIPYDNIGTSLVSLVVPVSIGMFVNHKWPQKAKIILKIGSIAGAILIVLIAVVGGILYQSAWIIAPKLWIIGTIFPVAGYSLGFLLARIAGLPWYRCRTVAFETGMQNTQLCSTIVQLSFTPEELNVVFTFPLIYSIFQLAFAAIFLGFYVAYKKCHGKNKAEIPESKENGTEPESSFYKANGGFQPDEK
Test: Inhibition Assay: On the day of the uptake experiment, 10 mM HEPES was added to Hank's Balanced Salt Solution, and the pH was adjusted to 7.4 with TRIS (HBSSH). The assay buffer was prepared by adding 100 uM [3H]-taurocholate and 10 uM cold taurocholate to room temperature HBSSH. A separate washing buffer was prepared by adding 10 uM cold taurocholate to HBSSH (30 ml per assay plate) and placed on ice. Using 100% DMSO, 8 point, 3-fold dilution curves for each test compound was prepared starting at 200 uM. Similarly, an 8 point dose response curve was prepared of the control compound [(3R,5R)-3-butyl-3-ethyl-7,8-bis(methyloxy)-5-phenyl-2,3,4,5-tetrahydro-1,4-benzothiazepine 1,1-dioxide (Brieaddy, L. E. WO9605188, 1996)] starting at 1.8 mM. Drug plates were created by adding 3 uL of each concentration to a v-bottom 96-well plate then diluted 60-fold with 177 uL of assay buffer. Plates were removed from the incubator and allowed to cool to ambient temperature.

- IC50: 0.013 µM
Structure (SMILES): CCCC[C@]1(CC)CS(=O)(=O)c2cc(CN[C@@H](CCS(C)(=O)=O)C(=O)O)c(OC)cc2[C@@H](c2ccccc2)N1
